Data from PubChem BioAssay (NCI).
“And” between values parts separate entries of the source, which are not always exact repeats. Identical values can stand only once.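 Where inhibition never reached the appropriate level, the endpoint shown equals the highest concentration tested. Otherwise, values were interpolated linearly from a five-concentration, 48-hour dose response in 96-well plates. Here, GI50 denotes the concentration required for 50% inhibition of growth. TGI: concentration producing complete growth inhibition.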

Tests used:
Test in all cases: NCI-60 cell line screen, 48 h
SW-620 colon = test system: SW-620 colon
SK-OV-3 ovarian = test system: SK-OV-3 ovarian
MOLT-4 leukemia = test system: MOLT-4 leukemia
BT-549 breast = test system: BT-549 breast
SF-295 CNS = test system: SF-295 CNS
SNB-19 CNS = test system: SNB-19 CNS
COLO 205 colon = test system: COLO 205 colon
MALME-3M melanoma = test system: MALME-3M melanoma
HT29 colon = test system: HT29 colon
NCI-H23 lung = test system: NCI-H23 lung

| SMILES | GI50 (SW-620 colon) [µM] | TGI (SW-620 colon) | GI50 (SK-OV-3 ovarian) [µM] | TGI (SK-OV-3 ovarian) | GI50 (MOLT-4 leukemia) [µM] | TGI (MOLT-4 leukemia) | GI50 (BT-549 breast) [µM] | TGI (BT-549 breast) | GI50 (SF-295 CNS) [µM] | TGI (SF-295 CNS) | GI50 (SNB-19 CNS) [µM] | TGI (SNB-19 CNS) | GI50 (COLO 205 colon) [µM] | TGI (COLO 205 colon) | GI50 (MALME-3M melanoma) [µM] | TGI (MALME-3M melanoma) | GI50 (HT29 colon) [µM] | TGI (HT29 colon) | GI50 (NCI-H23 lung) [µM] | TGI (NCI-H23 lung) |
| --- | --- | --- | --- | --- | --- | --- | --- | --- | --- | --- | --- | --- | --- | --- | --- | --- | --- | --- | --- | --- |
| COc1cc(/C=C/C(=O)c2c(C)nc3ccccc3c2C)ccc1OCCCN1CCN(C(=O)c2ccco2)CC1 | 6.03 | 19.2 µM | 16.1 | 52 µM | 0.528 | 8 µM | 4.86 | 23.3 µM | 8.42 | 25.1 µM | 11.9 | 31.1 µM | 11 | 23 µM | 3.43 | 18.2 µM | 7.71 | 23.2 µM | 6.39 | 24.7 µM |
| CCCCCCCC(=O)[O][Hg][CH2]C1COC([CH2][Hg][O]C(=O)CCCCCCC)CO1 (stereo unspecified) | 2.91 | 19.5 µM | 13.2 | 27.6 µM | 2.26 | > 100 µM | 11.1 | 23.1 µM | 19 | 36.5 µM | 16.1 | 29.5 µM | 3.72 | 14.6 µM | 3.24 | 11.6 µM | 15.6 | 34.3 µM | 14.2 | 28.6 µM |
| Cc1ccc(OCC2OC(n3cnc4c(Br)nc(Br)nc43)CC2Oc2ccc(C)cc2)cc1 (stereo unspecified) | 3.02 | 10.1 µM and 12.3 µM | 11.2 | 21.4 µM and > 54.2 µM | – | 4.34 µM and 5.42 µM | 9.96 | 20.6 µM and 34.4 µM | 2.22 | 5.28 µM and 25.9 µM | 11.8 | 22.9 µM and 17.8 µM | 11.4 | 25.3 µM and 13.1 µM | 6.5 | 16.3 µM and 21.6 µM | 2.32 | 8 µM and 7.2 µM | 6.1 | 16.7 µM and 15.4 µM |
| Nc1ncnc2c1ccn2[C@@H]1O[C@H]([C@H](O)c2ccc(Cl)c(F)c2)[C@@H](O)[C@H]1O | > 100 | > 100 µM | > 100 | > 100 µM | > 100 | > 100 µM | > 100 | > 100 µM | > 100 | > 100 µM | > 100 | > 100 µM | > 100 | > 100 µM | > 100 | > 100 µM | 36 | > 100 µM | > 100 | > 100 µM |
| CN(C)c1ccc2nc(CC(O)(C(F)(F)F)C(F)(F)F)ccc2c1 | – | > 10 µM | – | > 10 µM | – | > 10 µM | – | > 10 µM | – | > 10 µM | – | > 10 µM | – | > 10 µM | – | > 10 µM | – | > 10 µM | – | > 10 µM |
| Cc1nccc2c3ccc(OCc4cn(-c5ccc(Cl)cc5)nn4)cc3n(CC(C)C)c12 | 3.33 | > 33.3 µM | 4.25 | 16.5 µM | 1.14 | 6.54 µM | 1.51 | 7.12 µM | 1.25 | 7.64 µM | 4.5 | > 33.3 µM | 1.51 | 6.8 µM | 4.62 | 13 µM | 1.25 | 10.4 µM | 1.88 | 17.2 µM |
| COc1ccc(N(C)c2nc(Cl)nc3cnn(C)c23)cc1 | < 0.01 | > 100 µM | < 0.01 | > 100 µM | 0.0193 | > 100 µM | 0.0207 | > 71.6 µM | < 0.01 | > 100 µM | < 0.0131 | > 100 µM | < 0.01 | 0.058 µM | – | > 100 µM | < 0.01 | > 100 µM | < 0.0251 | > 100 µM |
| CC1(C)N=C(N)N=C(N)N1c1cccc(Br)c1 | 0.216 | > 100 µM | 1.69 | > 100 µM | 0.94 | > 100 µM | 8.04 | > 100 µM | 0.642 | > 38 µM | 1.68 | > 100 µM | 8.39 | > 100 µM | 33.2 | > 100 µM | 0.255 | > 100 µM | 0.564 | > 100 µM |
| Cn1c2ccccc2c2c(=O)n(CCCC(=O)OC(=NC3CCCCC3)NC3CCCCC3)c3c(-c4ccccc4)nnn3c21 | > 100 | > 100 µM | > 100 | > 100 µM | > 100 | > 100 µM | 72 | > 100 µM | 79 | > 100 µM | > 100 | > 100 µM | > 100 | > 100 µM | > 100 | > 100 µM | > 100 | > 100 µM | > 100 | > 100 µM |
| C/C(=N/N=C(N)N)c1ccc(NC(=O)Nc2ccc(/C(C)=N/N=C(N)N)cc2)cc1 | 48.8 | > 100 µM | 36.3 | > 82.3 µM | 25.7 | > 100 µM | 14.8 | 38.7 µM | 12.4 | 28.4 µM | 19.6 | 45 µM | 43.3 | > 100 µM | 16.5 | 46.9 µM | 27.3 | > 100 µM | 13.9 | 48 µM |
| N#CC1C(=O)NC(c2ccccc2[N+](=O)[O-])c2sc3c(F)cccc3c21 (stereo unspecified) | 0.366 | > 100 µM | 10.1 | 62.3 µM | 15.4 | > 73 µM | 14.9 | 61.5 µM | 1.11 | 30.3 µM | 22.1 | > 100 µM | 8.05 | 58.4 µM | 19.5 | 63.7 µM | 11.5 | > 93.9 µM | 8.78 | 45 µM |
| C=CCc1c(O)c(C(=O)/C=C/c2ccccc2)c(OC)c2ccoc12 | 3.32 | 12.1 µM | 8.08 | 21.2 µM | 2.17 | 16.6 µM | 2.63 | 8.09 µM | 2.44 | 7.26 µM | 2.85 | 10.7 µM | 5.96 | 18.1 µM | 5.8 | 20.2 µM | 3.01 | – | 2.52 | – |
| O=c1c(Cl)cc2nc3ccccc3sc-2c1Cl | – | 34.9 µM | – | 39 µM | – | > 100 µM | – | 24.6 µM | – | 34.4 µM | – | 32.9 µM | – | 38 µM | – | 23.6 µM | – | 49.2 µM | – | 28 µM |
